Results taken from PMC10485887, “PET Evaluation of the Novel F-18 Labeled Reversible Radioligand [^18F]GEH200449 for Detection of Monoamine Oxidase-B in the Non-Human Primate Brain” (ACS Chemical Neuroscience, 2023).

Tests used:
Type in all cases: in vivo, Macaca fascicularis
[1] = Fraction of unchanged radioligand in arterial plasma (radiometabolite analysis); conditions: 30 min after injection
Procedure: (§1) At start of PET data acquisition, a sterile physiological phosphate buffer solution (pH = 7.4) of [^18F]GEH200449 (injected radioactivity, 107–167 MBq) was injected as a bolus into a sural vein. Emission data were acquired in list mode for 123 min. Arterial blood was sampled as previously described[28] using an automated blood sampling system (ABSS) during the first 3 min of each PET measurement. Subsequently, arterial blood samples (0.7–2.5 mL) were manually drawn at 7, 15, 30, 60, 90, and 120 min after injection of [^18F]GEH200449. After centrifugation, 0.15–1.0 mL of plasma was pipetted and plasma radioactivity was measured in a well counter. In addition, samples were taken directly from the ABSS at 0.5, 1, 1.5, 2, 2.5, and 3 min for cross-calibration with the well counter and for the determination of the plasma-to-blood ratio.
The fraction of plasma radioactivity corresponding to the unchanged radioligand in plasma was determined from arterial plasma samples collected at 2, 7, 15, 30, 60, 90, and 120 min after injection of [^18F]GEH200449 according to previously described procedures.[29]

[2] = PET whole-brain radioactivity (brain exposure) at baseline; conditions: for whole-brain radioactivity, maximum concentration: IV injection
Procedure: Two male and three female NHPs (#1–5) of the species M. fascicularis, weighing 4.2–8.8 kg, were supplied by the Astrid Fagraeus Laboratory, Karolinska Institutet, Solna, Sweden. Anesthesia was initiated by intramuscular injection of ketamine hydrochloride (ca. 10 mg/kg, Ketalar, Pfizer) and maintained by intravenous infusion of a mixture of ketamine hydrochloride (4 mg/kg/h) and xylazine hydrochloride (0.4 mg/kg/h Rompun Vet., Bayer).
PET measurements were conducted using the high-resolution research tomograph system (Siemens Molecular Imaging, Knoxville, TN, USA) for NHPs #1–4 and using the LFER 150 PET/CT system (Mediso Ltd., Budapest, Hungary) for NHP #5.
as §1
Dynamic images were reconstructed as previously described.[30],[31] Regions of interest (ROIs) for the whole brain and selected regions (caudate nucleus, putamen, thalamus, occipital cortex, prefrontal cortex, and cerebellum) were manually delineated on T1-weighted magnetic resonance images (MRIs) acquired as previously described.[21],[27] PET images were coregistered to the MRIs, and time-activity curves were generated by pooling ROIs for each paired anatomical region and applying the pooled ROIs to the coregistered PET images. […]

MAO-B = conditions: from pretreatment and displacement with reference competitors
Procedure: Each PET measurement was performed on a separate experimental day. Experiments conducted in the same NHP were separated by at least 6 weeks. Baseline PET measurements were initially undertaken in each of the five NHPs.
Time curves for regional [^18F]GEH200449 binding at baseline were analyzed by kinetic modeling using 1-TC and 2-TC models,[32] and VT as outcome measures. Akaike information criterion[33] and F statistics were applied to select the preferred model. Regional estimates of VT for [^18F]GEH200449 were also obtained using the Logan linear graphical method[34] with t* fixed at 40 min. The analyses were performed using the kinetic modeling tool in PMOD v. 4.3. Occupancy at [^18F]GEH200449 binding sites was estimated based on regional VT values obtained by the Logan method at baseline and after drug administration according to a graphical procedure described in the literature.[22]

## O=c1ccoc2ccc(OCc3ccc([18F])nc3)cc12 [[^18F]GEH200449]
[1]
  parent radioligand remaining unchanged in plasma: 5–28%
[2]
  whole-brain radioactivity, maximum concentration: 4.0–6.4 %ID
[2]; n = 5 NHPs
  whole-brain radioactivity, maximum concentration: 3.4–5.2 SUV
[2]; after IV injection
  time to maximum whole-brain radioactivity concentration: 1.8 to 7.5 min
MAO-B
  character of binding in the NHP brain: reversible and selective toward MAO-B
